Oligonucleotides are written 5' to 3', each unit as a sugar letter and its base; * is a phosphorothioate linkage, no mark a phosphodiester; rarer units and linkages stand in square brackets, end groups in braces. Plain capitals give the bases only. d = 2'-deoxy (DNA); {P} = phosphate
Legend:
[1] = tested on: MM-AN cells; test: Tumorigenicity of pretreated MM-AN cells in SCID mice; assay type: in vivo; conditions: cells pretreated 40 μM 48 hours; day 18 (diluent 322±45)
Protocol: To study the effect of T-oligo on the tumorigenicity of MM-AN cells, cells were grown in DMEM with 5% fetal bovine serum (FBS) and treated with 40 μM of T-oligo, complement, or diluent alone for 48 hours. The cells were then harvested with trypsin/EDTA and the percent viability determined by trypan blue exclusion. […] The tumorigenicity of these melanoma cells was determined by injecting 1×10^6 viable cells in balanced salt solution subcutaneously over the right scapular region of SCID mice (3 groups of 5 mice) to produce tumors. The animals were sacrificed by CO2 inhalation 18 days after treatment and the tumor size evaluated with calipers. Tumors were processed for hematoxylin and eosin staining and the melanocytic origin of the tumors was confirmed by immunohistochemical staining of the lesion using HMB-45 monoclonal antibody, which recognizes gp-100, a conventional marker for human melanoma.

[2] = tested on: MM-AN cells; test: Metastatic potential of pretreated MM-AN cells in SCID mice; assay type: in vivo; conditions: for animals that developed multiple metastases: 5 mice per group, 40 days; for METASTASIS FREE: animals of 5; for Total Tumor Load (5 animals): mouse, in vivo; for Average tumors per animal: visible tumors, 40 days (diluent 15.8)
Protocol: To study the effect of T-oligo on the metastatic potential of melanoma cells, cultures of MM-AN cells were treated for 48 hours with T-oligo, complement or diluent alone and harvested as described above. 1×10^6 cells in balanced salt solution were injected into the lateral tail vein of 5-week old SCID mice (3 groups of 5 mice). After 40 days, mice were sacrificed by CO2 inhalation, an autopsy performed and organs examined macroscopically for visible metastatic lesions.

[3] = tested on: p21/Waf 1/Cip 1 gene; test: p21 mRNA Northern blot in SCC12F cells; assay type: cell-based, human; conditions: for p21 mRNA level relative to diluent control: 48 hours, FIG. 13; for increase of p21/Waf 1/Cip 1 mRNA level: within 48 hours
Protocol: The induction of melanogenesis in Cloudman S91 mouse melanoma cells by a five-nucleotide oligomer CATAC (SEQ ID NO: 6) and a nine-nucleotide oligomer, GAGTATGAG (SEQ ID NO: 1) was examined. Duplicates of Cloudman S91 murine melanoma cells were incubated with either 100 μM oligo or an equal volume of diluent (H2O) for 5 days. The cells were then collected, counted, and an equal number of cells were pelleted for melanin analysis. […] Variations of this oligonucleotide were evaluated: a scrambled 9-mer (TAGGAGGAT; SEQ ID NO: 2) and two truncated versions, a 7-mer (AGTATGA; SEQ ID NO: 3) and second 5-mer (GTATG; SEQ ID NO: 4). […] The truncated versions (SEQ ID NOs: 3 and 4) were also active, inducing 640% and 670% increases, respectively.
pTpT was previously found to inhibit cell cycle progression, at least in part through activation of p53 and subsequent upregulation of the cyclin dependent kinase inhibitor p21. Cultures of the human keratinocyte line SCC12F were treated with pTpT, SEQ ID NO: 1, SEQ ID NO: 6 or diluent alone as a negative control, collected and counted 48 hours later and processed for northern blot analysis of p21 mRNA expression. […] Thus, the sequences of the present invention activate p53 and inhibit cell proliferation similar to the effect of pTpT.

[4] = tested on: S91 cells; test: Cellular uptake of FAM-labeled oligonucleotides in S91 cells; assay type: in vitro ADME, mouse; conditions: 4 hours
Protocol: Fluorescein phosphoramidite (FAM) labeled oligonucleotides were added to cultures of S91 cells for 4 hours and the cells were then prepared for confocal microscopy. Nuclei, identified by staining with propidium iodide, appeared red and FAM-labeled oligonucleotides appeared green. Co-localization of red and green signals was assigned a yellow color by the computer. […] There was no change in the profile of oligonucleotide uptake after 6 and 24 hours.

[5] = tested on: mouse skin; test: Photodamage of UVB-irradiated XPA+/+ and XPA−/− mouse skin; assay type: in vivo; conditions: XPA−/− mice; 72 hours after last UV (diluent 15±5)
Excerpt: Patients with a mutated xeroderma pigrnentosum group A (XPA) gene have a greater than 1000 fold increased risk of UV-induced skin cancer. XPA^−/− mice mimic the human syndrome [Kraemer, K. et al., pp. 256–261 In: Molecular Biology of Aging (Bohr, V. A., et al., eds.) Munksgaard, Copenhagen, 1999]. We have previously shown that oligonucleotides, particularly thymidine dinucleotide (pTT) and pGAGTATGAG (SEQ ID NO:1) that are partial homologs of the telomere overhang tandem repeat TTAGGG (SEQ ID NO:11), increase levels of proteins involved in nucleotide excision repair and enhance the DNA repair rate. […] The mice were UV irradiated on day 5 with a previously determined erythemogenic UVB dose. […] Seventy-two hours after the last dose of […], the mouse skin was processed histologically to assess general morphology, proliferation (Ki-67) [Ohike N. and T Morohoshi, Pathol Int (2001), 51:770–777; Billgren, A. M. et al., Breast Cancer Res Treat (2002), 71:161–170], cyclobutane pyrimidine dimers (CPDs) determined by specific antibody binding, and on-going DNA repair [proliferating cell nuclear antigen (PCNA); see Savio, M. et al., Carcinogenesis (1998) 19:591–596; Rudolph, P. et al., Hum Pathol (1998) 29:1480–1487].

Substance	Mean tumor volume [1] [mm^3]	animals that developed multiple metastases [2]	Animals with tumors ([2]; Site: Adrenal)	Total tumors ([2]; Site: Adrenal)	Animals with tumors ([2]; Site: Bone)	Total tumors ([2]; Site: Bone)	Animals with tumors ([2]; Site: Brain)	Total tumors ([2]; Site: Brain)	Animals with tumors ([2]; Site: Brown fat)	Total tumors ([2]; Site: Brown fat)	Animals with tumors ([2]; Site: Kidney)	Total tumors ([2]; Site: Kidney)	Animals with tumors ([2]; Site: Liver)	Total tumors ([2]; Site: Liver)	Animals with tumors ([2]; Site: Lung)	Total tumors ([2]; Site: Lung)	Animals with tumors ([2]; Site: Miscellaneous)	Total tumors ([2]; Site: Miscellaneous)	Animals with tumors ([2]; Site: Pancreas)	Total tumors ([2]; Site: Pancreas)	further results
pCTAACCCTAAC (DNA, 5' {P}, backbone not given here) [SEQ ID NO: 9, reference compound]	238±50	All five animals	2/5	3	1/5	3	3/5	3	3/5	8	4/5	7	2/5	4	3/5	6	1/5	7	4/5	7	METASTASIS FREE [2]: 0/5; Total Tumor Load (5 animals) [2]: 48; Average tumors per animal [2]: 9.6
pGAGTATGAG (DNA, 5' {P}, backbone not given here) [SEQ ID NO: 1]	–	–	–	–	–	–	–	–	–	–	–	–	–	–	–	–	–	–	–	–	p21 mRNA level relative to diluent control [3]: ~3 fold; increase of p21/Waf 1/Cip 1 mRNA level [3]: 200–300%; cellular uptake and localization (confocal microscopy, FACS) [4]: intense staining that strongly localized to the nucleus; CPD (+) cells per 400× microscopic field [5]: none
pGTTAGGGTTAG (DNA {P}-dGdTdTdAdGdGdGdTdTdAdG) [SEQ ID NO: 5]	56±13	one of five animals	1/5	2	0/5	0	1/5	2	0/5	0	0/5	0	0/5	0	0/5	0	0/5	0	0/5	0	METASTASIS FREE [2]: 4/5; reduction of average volume of macroscopic metastatic tumors ([2]; compared to complement treated animals): ~80%; reduction of average volume of macroscopic metastatic tumors ([2]; compared to diluent treated animals): about 85%; Total Tumor Load (5 animals) [2]: 4; Average tumors per animal [2]: 0.8
thymidine dinucleotide [pTpT]	–	–	–	–	–	–	–	–	–	–	–	–	–	–	–	–	–	–	–	–	p21 mRNA level relative to diluent control [3]: twice that of control cells; increase of p21/Waf 1/Cip 1 mRNA level [3]: 100–150%; cellular uptake and localization (confocal microscopy, FACS) [4]: strong green fluorescence in the cytoplasm, but only a small amount of nuclear localization; CPD (+) cells per 400× microscopic field [5]: none

From patent US7033829B2, “Method to inhibit cell growth using oligonucleotides” (Trustees of Boston University, priority 2000, dated 2006)
